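Values below derive from 48-hour exposures of cells grown in 96-well plates, with endpoints linearly interpolated between the two concentrations bracketing the appropriate inhibition level. GI50 = concentration required for 50% inhibition of growth. At the TGI there is no net growth.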
Assays:
Test in all cases: NCI anticancer screen, dose series, 48 h
HOP-92 NSCLC = system: HOP-92 NSCLC
OVCAR-5 ovarian = system: OVCAR-5 ovarian
HCT-15 colon = system: HCT-15 colon
UACC-257 melanoma = system: UACC-257 melanoma
SW-620 colon = system: SW-620 colon
HCT-116 colon = system: HCT-116 colon
LXFL 529 NSCLC = system: LXFL 529 NSCLC
SR leukemia = system: SR leukemia
XF 498 CNS = system: XF 498 CNS
MDA-MB-231 breast = system: MDA-MB-231 breast

| Compound | TGI (HOP-92 NSCLC) [µM] | TGI (OVCAR-5 ovarian) [µM] | TGI (HCT-15 colon) [µM] | TGI (UACC-257 melanoma) [µM] | TGI (SW-620 colon) [µM] | TGI (HCT-116 colon) [µM] | TGI (LXFL 529 NSCLC) [µM] | GI50 (HOP-92 NSCLC) [µM] | GI50 (OVCAR-5 ovarian) [µM] | GI50 (HCT-15 colon) [µM] | GI50 (UACC-257 melanoma) [µM] | GI50 (SW-620 colon) [µM] | GI50 (HCT-116 colon) [µM] | GI50 (LXFL 529 NSCLC) [µM] | TGI (SR leukemia) [µM] | TGI (XF 498 CNS) [µM] | GI50 (SR leukemia) [µM] | GI50 (MDA-MB-231 breast) [µM] | TGI (MDA-MB-231 breast) [µM] |
| --- | --- | --- | --- | --- | --- | --- | --- | --- | --- | --- | --- | --- | --- | --- | --- | --- | --- | --- | --- |
| C/C(CC(=O)Nc1ccc(NC(=O)/C(C)=N/NS(=O)(=O)c2ccc(C)cc2)cc1)=N\NS(=O)(=O)c1ccc(C)cc1 | > 100 | > 100 | > 100 | > 100 | > 100 | > 100 | > 100 | – | – | – | – | – | – | – | – | – | – | – | – |
| CC(=O)[CH-]C(=O)c1ccccc1.CC(=O)[CH-]C(=O)c1ccccc1.CC[O-].O=C1C=C([O-])C(=O)c2ccccc21.[Ti+4] | 82.8 | > 100 | > 100 | 86 | > 100 | > 100 | > 100 | 26.2 | 95.3 | 56.2 | 8.49 | 33 | 62.5 | 48.8 | – | – | – | – | – |
| CCc1ccccc1NC(=O)C1=C(C)NC(C)=C(C(=O)Nc2ccccc2CC)C1c1ccc(NC(C)=O)cc1 | 90.6 | > 100 | – | > 100 | > 100 | > 100 | 87.2 | – | – | – | – | – | – | – | – | – | – | – | – |
| [N-]=[N+]=NC(c1cn(C2CC(O)C(CO)O2)c(=O)[nH]c1=O)C(I)I (stereo not given) | > 100 | > 100 | – | > 100 | > 100 | > 100 | > 100 | – | – | – | – | – | – | – | > 100 | – | – | – | – |
| CN(C(=O)C1CC1)C1C2CN3CCC(O2)C13 (stereo not given) | > 100 | > 100 | > 100 | > 100 | > 100 | > 100 | > 100 | – | – | – | – | – | – | – | – | – | – | – | – |
| NC(=O)C12CCC1C1CCCCC12N1CCOCC1 (stereo not given) | > 100 | > 100 | > 100 | – | > 100 | > 100 | > 100 | – | – | – | – | – | – | – | > 100 | – | – | – | – |
| CC(=O)Oc1cc(OC(C)=O)c2cc3c(cc2c1OC(C)=O)C(=O)C1(CCCC1)C3=O | 28.6 | – | 39.3 | – | 39.4 | – | – | – | – | – | – | – | – | – | – | 30 | – | – | – |
| Cc1ccc(C(=O)NC(C)C)cc1N=NN(C)C | > 100 | – | > 100 | > 100 | > 100 | > 100 | > 100 | – | – | – | – | – | – | – | – | – | – | – | – |
| CC1(C)CC(O)CCCCCCOc2c(CN)cccc2NC(=O)c2nc(cnc2N)-c2ccc(cc2)S1(=O)=O (stereo not given) | 5.82 | 6.34 | 2.56 | 3.4 | 2.36 | 1.03 | – | 2.72 | 2.81 | 0.263 | 1.52 | 0.629 | 0.187 | – | 0.469 | – | < 0.01 | 1.85 | 4.48 |
| Cc1sc2c(c1C)C(c1ccc(Cl)cc1)=N[C@@H](CC(=O)Nc1ccc(O)cc1)c1nnc(C)n1-2 | 13.1 | 30.3 | 14.9 | 26.9 | 32 | 17.8 | – | 0.0423 | 11.6 | 1.46 | 0.632 | 10.6 | 0.499 | – | 28.6 | – | 0.344 | 0.18 | 21.7 |

Reference: PubChem BioAssay (NCI)
